Read-outs that look alike come from different tables or passages of the source.
How the values were obtained:
[1] = test system: A2780/CP70 cells; experiment: MTT cytotoxicity assay, A2780/CP70 cells; conditions: for IC50: Homo sapiens, read-out: IC50 cytotoxicity
Experimental: In separate experiments, cells were seeded in 96‐well plates and after 24 h elapsed they were exposed to different concentrations of drugs or vehicle. Cells were then left in the incubator for a further 24 or 48 h. Then the media was replaced with fresh media containing no drug and the cells were left in the incubator. MTT assay was performed after 96 h elapsed from the time when cells were exposed to drugs or vehicle.
The cells were then left in the incubator and MTT assay was performed 96 h following the initial exposure to the drugs.
The selective index (SI) is the ratio of mean IC50 values for non‐cancer cells to cancer cells. […] While the isobologram can be considered predominantly as a graphical depiction of drug interactions, the combination index (CI) is a quantitative representation. It relates the actual drug concentration in the combination to the concentration of the single drug that achieves the same effect. […] Here, CI analysis was used to investigate combinations at 50% cytotoxicity. To this end the IC50 of the viability dose–response curves were determined by non‐linear regression curve fit analysis (GraphPad Prism, v5.00).
CIA+B is the combination index of A and B; C A the concentration of A applied in combination; C B the concentration of B applied in combination; IC50 A the IC50 of drug A when it was applied individually to the cells; IC50 B = IC50 of drug B when it was applied individually to the cells.

[2] = test system: A2780/CP70 cells; experiment: Annexin V assay, A2780/CP70 cells; type: cell-based, human; conditions: A2780/CP70, 50 μM, 24 h
Experimental: The Annexin V assay was performed to differentiate healthy cells from early and late apoptotic cells. Cells were seeded in T25 flasks at 2.75 × 10^5 cells per flask and were incubated for 24 h. After the incubation time elapsed, drugs at concentrations of 10, 30, and 50 μM or vehicle were added to the flasks and further incubated for 24 h. Cells were suspended in PBS at a density of 4 × 10^5 cells/mL, followed by centrifugation at 400 g for 5 min. The supernatant was removed and replaced with 100 μL of Annexin V mix, 94 μL of Roche buffer, 2 μL of Annexin V‐CF488A, 2 μL of 10 μg/mL of propodium iodide (PI), and 2 μL of Hoechst 33342 buffer. Hoechst 33342 buffer in the Annexin V mix binds to the nuclei in the sample and fluoresces violet. The early apoptotic cells are stained with Annexin V‐CF488A, which fluoresces green. The non‐viable cells are stained by PI, and the late apoptotic cells are stained by both PI and Annexin V‐CF488A, which fluoresces red and green, respectively. […] After the incubation time elapsed, 40 μL of samples were loaded on to an A‐2 slide and were analyzed immediately using the NC‐3000 system. The scatter plot of the fluorescence intensity of Annexin V‐CF488A versus the fluorescence intensity of PI was used as a representation of cells in different stages of apoptosis.

[3] = test system: A2780 cells; experiment: Cell cycle analysis (DAPI, NC-3000), A2780 cells; type: cell-based, human; conditions: 48 h
Experimental: (§1) Cells were seeded in T25 flasks at 4 × 10^5 cells per flask and were incubated for 48 h or until they reached confluency. […] After the incubation time elapsed cells were suspended in PBS with a density closer to 1 × 10^6cells/mL. The cells were washed twice with 1× PBS before the addition of 250 μL of lysis buffer (solution 10) supplemented with 10 μg/mL DAPI (solution 12) was added to the samples and incubated for 5 min at 37°C. After incubation, 250 μL of stabilization buffer (solution 11) was added. 12.5 μL of samples were loaded on to an A‐8 slide and were analyzed using the NC‐3000 system.

[4] = test system: A2780/CP70 cells; experiment: Cell cycle analysis (DAPI, NC-3000), A2780/CP70 cells; type: cell-based, human; conditions: 48 h
Experimental: as §1

[5] = test system: caspase 3/7 activity in A2780 cells; experiment: Caspase 3/7 assay, A2780 cells; type: cell-based, human; conditions: A2780, 24 h contact time, dose-dependent, significant above 10 μM
Experimental: (§2) Sensolyte homogenous caspase 3/7 assay kit was used to determine the caspase activity in ovarian cancer cells when treated with CBG. Cells were seeded in 96‐well plate at 6 × 10^3 cells per well and were incubated for 24 h. CBG was added in concentrations of 10, 20, 30, and 50 μM and incubated for a further 24 h. After the incubation time elapsed, the media was removed and replaced with 150 μL/well of fresh complete media. Caspase 3/7 solution was prepared by diluting the caspase substrate 1:100 with DTT‐containing assay buffer. 50 μL/well caspase substrate was added to the plates, and the cells were incubated for 30 min. Ac‐DEVD‐AMC serves as the fluorogenic indicator for assaying caspase‐3/7 activity. Ac‐DEVD‐AMC generates the AMC fluorophore in the presence of caspase 3/7, which produces bright blue fluorescence. The fluorescence was measured by the FLOUstar OPTIMA plate reader with the excitation at 354 nm and emission at 442 nm.
(§3) The level of caspase 3/7 was also determined using Apotox‐Glo Triple assay. Cells were seeded and drugs were added as described above in Section 2.6.1. After 24 h incubation, caspase 3/7 reagent was prepared by mixing caspase buffer and substrate and 100 μL of reagent was added to each well for 30 min incubation at room temperature. […] The luminescence was measured by the FLOUstar OPTIMA plate reader.

[6] = test system: caspase 3/7 activity in A2780/CP70 cells; experiment: Caspase 3/7 assay, A2780/CP70 cells; type: cell-based, human; conditions: A2780/CP70, 24 h contact time, dose-dependent, significant above 10 μM
Experimental: as §2, §3

[7] = MTT cytotoxicity assay, non-cancer PNT2 cells; conditions: human, PNT2 normal prostate epithelial cells
Experimental: (§4) Human ovarian carcinoma cells, A2780 (sensitive to chemotherapeutics), A2780/CP70 (resistant to chemotherapeutics), and non‐cancerous cells including PNT2 (normal prostate epithelial cell line), and/or ARPE19 (human retinal pigment cell line) were maintained according to the ATCC and ECACC guidelines.
(§5) In vitro chemosensitivity assays were performed using the MTT assay as previously described.[32], [33] Briefly, at 70% confluency, cells were seeded in 96‐well plates at a density of 2000 cells/well. […] After the allocated contact time had elapsed, the media was removed and 0.5% (w/v) MTT solution diluted in complete media (200 μL) was added to each well. Following a 4 h incubation, the supernatants were removed, and the formazan crystals were dissolved in dimethylsulfoxide (150 μL). The absorbance was read at 540 nm on a Tecan Infinite 50 plate UV reader.

[8] = MTT cytotoxicity assay, non-cancer ARPE19 cells; conditions: human, ARPE19 non-cancer retinal pigment cells
Experimental: as §4, §5

For `CCCCCc1cc(O)c(C/C=C(\C)CCC=C(C)C)c(O)c1` [CBG, cannabigerol], the IC50 ([1]; A2780/CP70, 24 h) was 17.7 ± 0.1 µM, the IC50 ([1]; A2780/CP70, 48 h) was 15.4 ± 0.7 µM and the IC50 ([1]; A2780/CP70, 72 h) was 12.3 ± 1.4 µM. The IC50 ([1]; A2780/CP70, 96 h) was 7.1 ± 0.8 µM, the Selectivity index ([1]; IC50 ARPE19 / IC50 A2780/CP70, 24 h) was 1.81 and the Selectivity index ([1]; IC50 ARPE19 / IC50 A2780/CP70, 48 h) was 1.37. It also gave a Selectivity index ([1]; IC50 ARPE19 / IC50 A2780/CP70, 72 h) of 1.56, a Selectivity index ([1]; IC50 ARPE19 / IC50 A2780/CP70, 96 h) of 2.45 and a Selectivity index ([1]; IC50 PNT2 / IC50 A2780/CP70, 48 h) of 1.48. The Selectivity index ([1]; IC50 PNT2 / IC50 A2780/CP70, 72 h) was 1.59, the Selectivity index ([1]; IC50 PNT2 / IC50 A2780/CP70, 96 h) was 2.56 and the “Cells in early apoptosis” value [2] was 72 ± 1.4%. For the same molecule, the “Cells in late apoptosis” value [2] was 9 ± 1.4%, the “Cells in G0/G1 phase” value ([3]; A2780, 10 μM) was 79.1 ± 0.4% and the “Cells in G0/G1 phase” value ([3]; A2780, 30 μM) was 80.2 ± 1.3%. For the same molecule, the “Cells in G0/G1 phase” value ([3]; A2780, 50 μM) was 67.6 ± 1.1%, the “Cells in subG1 phase” value ([3]; A2780, 50 μM) was 8.7 ± 0.6% and the “Cells in G0/G1 phase” value ([4]; A2780/CP70, 10 μM) was 86.4 ± 0.5%. The “Cells in G0/G1 phase” value ([4]; A2780/CP70, 30 μM) was 90.6 ± 0.4%, the “Cells in S phase” value ([4]; A2780/CP70, 30 μM) was 5.6 ± 0.6% and the “Cells in G2/M phase” value ([4]; A2780/CP70, 50 μM) was 16.4 ± 1.9%. For the same molecule, the “Caspase 3/7 activity” value [5] was “increased the caspase 3/7 activity”, the “Caspase 3/7 activity” value [6] was “increased the caspase 3/7 activity” and the IC50 at 24 h [7] was 37.2 ± 2.1 µM. For the same molecule, the IC50 at 48 h [7] was 22.9 ± 1.5 µM, the IC50 at 72 h [7] was 19.9 ± 0.3 µM and the IC50 at 96 h [7] was 18.3 ± 1.3 µM. The IC50 at 24 h [8] was 32.1 ± 1.8 µM, the IC50 at 48 h [8] was 21.2 ± 2.7 µM and the IC50 at 72 h [8] was 19.2 ± 1 µM. The IC50 at 96 h [8] was 17.4 ± 2.4 µM.
